Columns and labels:
B16 [1] = experiment: Tested for cytotoxicity in murine melanoma (B16); assay type: functional, cell-based; settings: Mus musculus
Colon 26 [2] = experiment: Tested for cytotoxicity in murine colon cancer (C26); assay type: functional, cell-based; settings: Mus musculus
CCRF-CEM = experiment: Tested for cytotoxicity in human T-cell lymphoblastic leukemia cell line (CEM); assay type: functional, cell-based
HepG2 [3] = experiment: Tested for cytotoxicity in human hepatoma cell (2.2.15); assay type: functional, cell-based
M109 [4] = experiment: Tested for cytotoxicity in murine lung carcinoma (M109); assay type: functional, cell-based; settings: Mus musculus
B16 [5] = experiment: Tested for cytotoxicity in murine melanoma (B16); not cytotoxic at the highest concentration tested (70 uM); assay type: functional, cell-based, Mus musculus
Colon 26 [6] = experiment: Tested for cytotoxicity in murine colon cancer (C26); not cytotoxic at the highest concentration tested (70 uM); assay type: functional, cell-based, Mus musculus
HepG2 [7] = experiment: Tested for cytotoxicity in human hepatoma cell (2.2.15); not cytotoxic at the highest concentration tested (70 uM); assay type: functional, cell-based
HepG2 [8] = experiment: Tested for effective concentration against HBV treated with drug every 3 days for 9 days using human hepatoblastoma cell line HepG2 2.2.15; assay type: functional, cell-based
HepG2 [9] = experiment: Tested for the ability to inhibit HBV DNA synthesis at a concentration of 7 nM using human hepatoblastoma cell line HepG2 2.2.15; assay type: functional
HepG2 [10] = experiment: Tested for the ability to inhibit HBV replication at a concentration of 40 nM using human hepatoblastoma cell line HepG2 2.2.15; assay type: functional
M109 [11] = experiment: Tested for cytotoxicity in murine lung carcinoma (M109); not cytotoxic at the highest concentration tested (70 uM); assay type: functional, cell-based, Mus musculus
HepG2 [12] = experiment: Tested for the ability to inhibit HBV replication at a concentration of 19 nM using human hepatoblastoma cell line HepG2 2.2.15; assay type: functional
HepG2 [13] = experiment: Tested for the ability to inhibit extracellular HBV DNA synthesis at a concentration of 10 nM; assay type: functional; settings: Homo sapiens
HepG2 [14] = experiment: Tested for the ability to inhibit HBV DNA synthesis at a concentration of 4 nM using human hepatoblastoma cell line HepG2 2.2.15; assay type: functional

Row | EC50 (HepG2 [8]) | SMILES | IC50 (B16 [1]) | IC50 (Colon 26 [2]) | IC50 (CCRF-CEM) | IC50 (HepG2 [3]) | IC50 (M109 [4]) | IC50 (B16 [5]) | IC50 (Colon 26 [6]) | IC50 (HepG2 [7]) | inhibition at 0.007 µM (HepG2 [9]) | inhibition at 0.04 µM (HepG2 [10]) | IC50 (M109 [11]) | inhibition at 0.019 µM (HepG2 [12]) | inhibition at 0.01 µM (HepG2 [13]) | inhibition at 0.004 µM (HepG2 [14])
1 |  | CC(=O)SCCOP(=O)(OCCSC(C)=O)OC[C@H]1CC[C@@H](n2cnc3c(N)ncnc32)O1 | > 70 µM | > 70 µM | 13 µM | > 70 µM | > 70 µM |  |  |  |  |  |  |  |  | 
2 |  | CC(=O)SCCOP(=O)(OCCS)OC[C@H]1C=C[C@@H](n2cc(F)c(N)nc2=O)O1 (some centres not stated) | > 70 µM | > 70 µM | 52 µM | > 70 µM | > 70 µM |  |  |  |  |  |  |  |  | 
3 | 0.017 µM | Nc1nc(=O)n([C@@H]2C=C[C@H](CO)O2)cc1F [ELVUCITABINE] |  |  | 13 µM |  |  | Not Active | Not Active | Not Active | 50% | 70% | Not Active |  |  | 
4 | 0.002 µM | CC(=O)SCCOP(=O)(OCCSC(C)=O)OC[C@H]1C=C[C@@H](n2cc(F)c(N)nc2=O)O1 |  |  | 52 µM |  |  | Not Active | Not Active | Not Active |  |  | Not Active | 90% | 85% | 50%
